Test results as given in patent US12492181B2, “Gem-disubstituted piperidine melanocortin subtype-2 receptor (MC2R) antagonists and uses thereof” (Crinetics Pharmaceuticals, Inc., priority 2019, dated 2025).

Molecular target: T1, hMC2 receptor (crude hMC2R membranes from CRE-bla-CHO-K1 cells stably expressing hMC2 receptor and hMRAP accessory protein) (Homo sapiens, UniProt Q01718)
T1 construct: crude membrane fractions
Assay: hMC2 membrane binding assay ([125I]ACTH (1-39) Tyr23, SPA)
Conditions: displacement of 0.2 nM [125I]ACTH (1-39) Tyr23 from hMC2R membranes, 1.5 hours at room temperature; read-out: MC2R binding potency
Summary of the method: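 Ki values come from non-linear regression of SPA scintillation counts, with compounds displacing [125I]ACTH(1-39) Tyr23. Membranes come from CRE-bla-CHO-K1 cells stably expressing hMC2 receptor together with hMRAP. They are preincubated with WGA-coated PVT SPA beads in 50 mM HEPES pH 7.4 with 0.20% BSA, Mg2+, Ca2+ and protease inhibitors.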

T1 sequence (Q01718 whole entry): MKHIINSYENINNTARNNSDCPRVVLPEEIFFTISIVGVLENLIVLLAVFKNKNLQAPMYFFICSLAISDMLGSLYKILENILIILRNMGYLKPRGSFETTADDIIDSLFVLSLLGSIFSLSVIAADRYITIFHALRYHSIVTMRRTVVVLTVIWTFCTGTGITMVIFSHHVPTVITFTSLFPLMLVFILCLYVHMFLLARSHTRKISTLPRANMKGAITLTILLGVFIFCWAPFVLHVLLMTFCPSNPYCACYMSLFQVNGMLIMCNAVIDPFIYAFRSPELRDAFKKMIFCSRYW
T1 sequence (Q8TCY5 whole entry partner): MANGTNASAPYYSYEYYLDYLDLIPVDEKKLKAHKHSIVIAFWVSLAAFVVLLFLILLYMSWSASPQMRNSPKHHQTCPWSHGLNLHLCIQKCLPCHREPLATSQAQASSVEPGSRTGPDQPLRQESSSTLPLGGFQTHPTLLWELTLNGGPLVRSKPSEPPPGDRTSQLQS

Ki [nM] | Compound
10 to 100 | COc1ccccc1-c1ccc(C2(NC(=O)NC3CN(C)C3)CCN(c3ccc(C(F)(F)F)cc3C#N)CC2)cn1 [Compound 2-59, 1-{1-[2-cyano-4-(trifluoromethyl)phenyl]-4-[6-(2-methoxyphenyl)pyridin-3-yl]piperidin-4-yl}-3-(1-methylazetidin-3-yl)urea]
< 10 | CN1CC[C@H]1CNC(=O)C1(c2ccc(-c3cccn3C)nc2)CCN(c2ccc(C(F)(F)F)cc2C#N)CC1 [Compound 1-241, 1-[2-cyano-4-(trifluoromethyl)phenyl]-4-[6-(1-methyl-1H-pyrrol-2-yl)pyridin-3-yl]-N-{[(2S)-1-methylazetidin-2-yl]methyl}piperidine-4-carboxamide]
< 10 | COc1ccccc1-c1ccc(C2(C(=O)NC[C@@H]3C[C@H](F)CN3)CCN(c3ccc(C(F)(F)F)cc3C#N)CC2)cn1 [Compound 1-246, 1-[2-cyano-4-(trifluoromethyl)phenyl]-N-{[(2S,4S)-4-fluoropyrrolidin-2-yl]methyl}-4-[6-(2-methoxyphenyl)pyridin-3-yl]piperidine-4-carboxamide]
< 10 | CCOc1ccccc1-c1ncc(C2(C(=O)NCCN(C)C)CCN(c3ccc(C(F)(F)F)cc3Cl)CC2)cc1F [Compound 1-291, 1-[2-chloro-4-(trifluoromethyl)phenyl]-N-[2-(dimethylamino)ethyl]-4-[6-(2-ethoxyphenyl)-5-fluoropyridin-3-yl]piperidine-4-carboxamide]
< 10 | CCOc1ncccc1-c1ncc(C2(C(=O)NCCN(C)C)CCN(c3ccc(C(F)(F)F)cc3Cl)CC2)cc1F [Compound 1-288, 1-[2-chloro-4-(trifluoromethyl)phenyl]-N-[2-(dimethylamino)ethyl]-4-{2′-ethoxy-3-fluoro-[2,3′-bipyridin]-5-yl}piperidine-4-carboxamide]
10 to 100 | CCOc1ncccc1-c1ccc(C2(NC(=O)CCN)CCN(c3ccc(C(F)(F)F)cc3C#N)CC2)cc1 [Compound 2-3, 3-amino-N-{1-[2-cyano-4-(trifluoromethyl)phenyl]-4-[4-(2-ethoxypyridin-3-yl)phenyl]piperidin-4-yl}propanamide]
< 10 | CCOc1ccccc1-c1ccc(C2(NC(=O)CN(C)C)CCN(c3ccc(Cl)cc3C#N)CC2)cn1 [Compound 2-31, N-[1-(4-chloro-2-cyanophenyl)-4-[6-(2-ethoxyphenyl)pyridin-3-yl]piperidin-4-yl]-2-(dimethylamino)acetamide]
< 10 | CCOc1ccccc1-c1ncc(C2(C(=O)NCCNC)CCN(c3ccc(C(F)(F)F)cc3F)CC2)cc1F [Compound 1-290, 4-[6-(2-ethoxyphenyl)-5-fluoropyridin-3-yl]-1-[2-fluoro-4-(trifluoromethyl)phenyl]-N-[2-(methylamino)ethyl]piperidine-4-carboxamide]
10 to 100 | COc1ccccc1-c1ccc(C2(C(=O)NC[C@@H]3CN(C)CCO3)CCN(c3ccc(C(F)(F)F)cc3C#N)CC2)cn1 [Compound 1-330, 1-[2-cyano-4-(trifluoromethyl)phenyl]-4-[6-(2-methoxyphenyl)pyridin-3-yl]-N-{[(2R)-4-methylmorpholin-2-yl]methyl}piperidine-4-carboxamide]
< 10 | CO[C@@H]1CN(C)C[C@@H]1NC(=O)C1(c2ccc(-c3cccn3C)nc2)CCN(c2ccc(C(F)(F)F)cc2C#N)CC1 (racemic) [Compound 1-267, rac-1-[2-cyano-4-(trifluoromethyl)phenyl]-N-[(3S,4R)-4-methoxy-1-methylpyrrolidin-3-yl]-4-[6-(1-methyl-1H-pyrrol-2-yl)pyridin-3-yl]piperidine-4-carboxamide]
< 10 | CN(C)CCNC(=O)C1(c2ccc(-c3cccn3C)nc2)CCN(c2ccc(C(F)(F)F)cc2Cl)CC1 [Compound 1-282, 1-[2-chloro-4-(trifluoromethyl)phenyl]-N-[2-(dimethylamino)ethyl]-4-[6-(1-methyl-1H-pyrrol-2-yl)pyridin-3-yl]piperidine-4-carboxamide]
< 10 | CN1CC[C@](C)(NC(=O)C2(c3ccc(-c4cccn4C)nc3)CCN(c3ccc(C(F)(F)F)cc3C#N)CC2)C1 [Compound 1-253, 1-[2-cyano-4-(trifluoromethyl)phenyl]-N-[(3S)-1,3-dimethylpyrrolidin-3-yl]-4-[6-(1-methyl-1H-pyrrol-2-yl)pyridin-3-yl]piperidine-4-carboxamide]

More lines, now with the values behind:

Compound | Ki [nM]
CCOc1ncccc1-c1ccc(C2(C(=O)NC[C@@H](CO)NC)CCN(c3ccc(C(F)(F)F)cc3C#N)CC2)cn1 [Compound 1-47, 1-[2-cyano-4-(trifluoromethyl)phenyl]-4-{2′-ethoxy-[2,3′-bipyridin]-5-yl}-N-[(2S)-3-hydroxy-2-(methylamino)propyl]piperidine-4-carboxamide] | < 10
CCOc1ncccc1-c1ccc(C2(C(=O)NC[C@@H](C)N)CCN(c3ccc(C(F)(F)F)cc3C#N)CC2)cc1 [Compound 1-4, N-[(2R)-2-aminopropyl]-1-[2-cyano-4-(trifluoromethyl)phenyl]-4-[4-(2-ethoxypyridin-3-yl)phenyl]piperidine-4-carboxamide] | 10 to 100
CCOC(=O)N1CC[C@H](NC(=O)C2(c3ccc(-c4cccn4C)nc3)CCN(c3ccc(C(F)(F)F)cc3C#N)CC2)C1 [Compound 1-184, ethyl (3S)-3-{1-[2-cyano-4-(trifluoromethyl)phenyl]-4-[6-(1-methyl-1H-pyrrol-2-yl)pyridin-3-yl]piperidine-4-amido}pyrrolidine-1-carboxylate] | 100 to 1000
CN1CC[C@@H](NC(=O)C2(c3ccc(-c4ccccc4OC(F)F)nc3)CCN(c3ccc(C(F)(F)F)cc3C#N)CC2)C1 [Compound 1-114, 1-[2-cyano-4-(trifluoromethyl)phenyl]-4-{6-[2-(difluoromethoxy)phenyl]pyridin-3-yl}-N-[(3R)-1-methylpyrrolidin-3-yl]piperidine-4-carboxamide] | < 10
CN1CC[C@@H](NC(=O)C2(c3ccc(-c4cccc5c4OC(F)(F)O5)nc3)CCN(c3ccc(C(F)(F)F)cc3C#N)CC2)C1 [Compound 1-67, 1-[2-cyano-4-(trifluoromethyl)phenyl]-4-[6-(2,2-difluoro-2H-1,3-benzodioxol-4-yl)pyridin-3-yl]-N-[(3R)-1-methylpyrrolidin-3-yl]piperidine-4-carboxamide] | 10 to 100
CCOc1ncccc1-c1ccc(C2(C(=O)NC[C@H](C)N)CCN(c3ccc(C(F)(F)F)cc3C#N)CC2)cn1 [Compound 1-16, N-[(2S)-2-aminopropyl]-1-[2-cyano-4-(trifluoromethyl)phenyl]-4-{2′-ethoxy-[2,3′-bipyridin]-5-yl}piperidine-4-carboxamide] | < 10
CCc1ccccc1-c1ccc(C2(C(=O)N[C@H]3CCN(C)C3)CCN(c3ccc(C(F)(F)F)cc3C#N)CC2)cn1 [Compound 1-104, 1-[2-cyano-4-(trifluoromethyl)phenyl]-4-[6-(2-ethylphenyl)pyridin-3-yl]-N-[(3S)-1-methylpyrrolidin-3-yl]piperidine-4-carboxamide] | < 10
CN1CC[C@@H](NC(=O)C2(c3ccc(-c4cccc5cnn(C)c45)nc3)CCN(c3ccc(C(F)(F)F)cc3C#N)CC2)C1 [Compound 1-73, 1-[2-cyano-4-(trifluoromethyl)phenyl]-4-[6-(1-methyl-1H-indazol-7-yl)pyridin-3-yl]-N-[(3R)-1-methylpyrrolidin-3-yl]piperidine-4-carboxamide] | < 10
CN1CC[C@@H](NC(=O)C2(c3ccc(-c4ccccc4C(C)(F)F)nc3)CCN(c3ccc(C(F)(F)F)cc3C#N)CC2)C1 [Compound 1-84, 1-[2-cyano-4-(trifluoromethyl)phenyl]-4-{6-[2-(1,1-difluoroethyl)phenyl]pyridin-3-yl}-N-[(3R)-1-methylpyrrolidin-3-yl]piperidine-4-carboxamide] | 10 to 100
CCOc1ncccc1-c1ccc(C2(C(=O)N[C@H]3CCN(C)C3)CCN(c3ccc(C(F)(F)F)cc3)CC2)cn1 [Compound 1-33, 4-{2′-ethoxy-[2,3′-bipyridin]-5-yl}-N-[(3S)-1-methylpyrrolidin-3-yl]-1-[4-(trifluoromethyl)phenyl]piperidine-4-carboxamide] | < 10
CCOc1ncccc1-c1ccc(C2(C(=O)N[C@H]3CCN(C)C3)CCN(c3ccc(C(F)(F)F)nc3C#N)CC2)cn1 [Compound 1-26, 1-[2-cyano-6-(trifluoromethyl)pyridin-3-yl]-4-{2′-ethoxy-[2,3′-bipyridin]-5-yl}-N-[(3S)-1-methylpyrrolidin-3-yl]piperidine-4-carboxamide] | < 10
COc1sccc1-c1ccc(C2(C(=O)N[C@H]3CCN(C)C3)CCN(c3ccc(C(F)(F)F)cc3Cl)CC2)cn1 [Compound 1-167, 1-[2-chloro-4-(trifluoromethyl)phenyl]-4-[6-(2-methoxythiophen-3-yl)pyridin-3-yl]-N-[(3S)-1-methylpyrrolidin-3-yl]piperidine-4-carboxamide] | < 10
COc1sccc1-c1ccc(C2(C(=O)N[C@@H]3CCN(C)C3)CCN(c3ccc(C(F)(F)F)cc3C#N)CC2)cn1 [Compound 1-83, 1-[2-cyano-4-(trifluoromethyl)phenyl]-4-[6-(2-methoxythiophen-3-yl)pyridin-3-yl]-N-[(3R)-1-methylpyrrolidin-3-yl]piperidine-4-carboxamide] | < 10
CNCCCNC(=O)C1(c2cnc(-c3ccccc3OC)c(F)c2)CCN(c2ccc(C(F)(F)F)cc2C#N)CC1 [Compound 1-197, 1-[2-cyano-4-(trifluoromethyl)phenyl]-4-[5-fluoro-6-(2-methoxyphenyl)pyridin-3-yl]-N-[3-(methylamino)propyl]piperidine-4-carboxamide] | < 10
COc1ccccc1-c1ncc(C2(C(=O)N[C@H]3CCN(C)C3)CCN(c3ccc(C(F)(F)F)cc3C#N)CC2)cc1F [Compound 1-127, 1-[2-cyano-4-(trifluoromethyl)phenyl]-4-[5-fluoro-6-(2-methoxyphenyl)pyridin-3-yl]-N-[(3S)-1-methylpyrrolidin-3-yl]piperidine-4-carboxamide] | < 10
